The subject of test [1] is phosphorylation of Serine 473 in Akt, HCT 116 human colon carcinoma cells. The experiment in a line: Cell-based phospho-AKT Ser473 assay (MSD sandwich immunoassay, IGF-1 stimulated). To be noted: read-out: HCT 116 pAKT IC50. How it is done: This assay determines the ability of test compounds to inhibit the phosphorylation of […] in Akt using a MSD based sandwich immunoassay (Meso Scale Detection, catalogue # N411CAB-1). […] Prior to the assay cells were detached from the culture flask with trypsin, and re-suspended in complete media to give a final concentration of 1.6×10^5 cells per ml. Aliquots (100 μl) of the HCT116 cell suspension were seeded into each well of a 96 well tissue culture plate (Corning Incorporated COSTAR, catalogue#3595) to give a final density of 16,000 cells per well. Cells were then incubated overnight at 37° C. The following day the cells were treated with serially diluted test compounds and incubated for 2 hours at 37° C. […] As a maximum response control, wells contained 0.5% DMSO in place of test compound. The plates were mixed at 700 rpm for 2 min to ensure even distribution of the test compound and incubated for 2 hours at 37° C. Cells were then stimulated with insulin-like growth factor 1 (Sigma, product #13769) at final concentration of 100 ng/ml for 15 minutes at 37° C. The media was then removed and the cells treated with 80 μl cell-lysis buffer (MSD) containing a cocktail of protease and phosphatase inhibitors for one hour at 4° C. […] The detection antibody was removed and plates were then washed four times with 200 μl per well of Tris wash buffer. An aliquot of 150 μl of diluted MSD read buffer was then applied to each well, and the electrochemiluminescent signal was measured using a MSD SECTORTM plate reader. This instrument measures the intensity of emitted light to determine a quantitative measure of phosphorylated Akt in each well. The dose-response data obtained with each compound were analyzed and the IC50 inhibition of Akt phosphorylation at Ser473 calculated.

Another test addresses T1, PI3K β (Homo sapiens, UniProt P42338).
T1 construct: Full length p110 subunits of PI3K α, β and δ, N-terminally labeled with polyHis tag; polyHis (N); made in house; host or cells: Sf9 insect cells (baculovirus)
In words: In vitro PI3 kinase enzyme assay (beta), ATP loss, bioluminescence.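 Note: purified p110β/p85 heterodimer with PtdIns(4,5)P2 as acceptor, incubated at room temperature, leftover ATP read by luminescence, inhibition scaled to compound-free wells with and without enzyme.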 Type of test: biochemical. To be noted: read-out: PI3Kβ ATP loss IC50.

Another test deals with T2, PI3K α (Homo sapiens, UniProt P42336).
T2 construct: Full length p110 subunits of PI3K α, β and δ, N-terminally labeled with polyHis tag; polyHis (N); made in house; host or cells: Sf9 insect cells (baculovirus)
T2 sequence (P42336 whole entry, species assumed): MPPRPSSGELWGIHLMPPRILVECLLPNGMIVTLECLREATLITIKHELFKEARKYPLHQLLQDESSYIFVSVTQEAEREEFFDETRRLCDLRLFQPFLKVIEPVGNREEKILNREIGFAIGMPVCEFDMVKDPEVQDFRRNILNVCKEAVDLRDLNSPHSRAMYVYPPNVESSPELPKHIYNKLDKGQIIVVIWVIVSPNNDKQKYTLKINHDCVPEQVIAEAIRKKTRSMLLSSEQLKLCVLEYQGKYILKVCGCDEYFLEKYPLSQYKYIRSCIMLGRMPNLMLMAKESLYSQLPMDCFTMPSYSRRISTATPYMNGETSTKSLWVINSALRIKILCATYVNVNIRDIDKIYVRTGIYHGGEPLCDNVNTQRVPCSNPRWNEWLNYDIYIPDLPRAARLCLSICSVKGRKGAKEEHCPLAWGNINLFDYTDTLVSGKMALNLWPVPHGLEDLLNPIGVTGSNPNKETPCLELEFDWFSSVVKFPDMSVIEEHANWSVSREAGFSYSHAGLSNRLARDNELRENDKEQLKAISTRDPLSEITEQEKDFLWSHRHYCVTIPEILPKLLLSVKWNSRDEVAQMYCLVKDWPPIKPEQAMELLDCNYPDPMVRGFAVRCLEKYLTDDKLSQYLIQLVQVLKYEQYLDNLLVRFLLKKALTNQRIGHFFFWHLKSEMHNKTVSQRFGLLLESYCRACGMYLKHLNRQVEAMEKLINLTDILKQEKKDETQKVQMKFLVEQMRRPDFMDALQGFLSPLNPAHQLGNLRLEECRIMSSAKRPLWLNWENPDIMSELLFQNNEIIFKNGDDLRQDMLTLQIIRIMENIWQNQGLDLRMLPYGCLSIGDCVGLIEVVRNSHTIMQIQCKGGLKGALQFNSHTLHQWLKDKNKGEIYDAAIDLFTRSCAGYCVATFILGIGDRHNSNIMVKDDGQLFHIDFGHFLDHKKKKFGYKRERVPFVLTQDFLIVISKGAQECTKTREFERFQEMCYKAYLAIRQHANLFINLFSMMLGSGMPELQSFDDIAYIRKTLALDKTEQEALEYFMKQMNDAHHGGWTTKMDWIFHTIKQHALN
T2 sequence (P27986 whole entry partner, species assumed): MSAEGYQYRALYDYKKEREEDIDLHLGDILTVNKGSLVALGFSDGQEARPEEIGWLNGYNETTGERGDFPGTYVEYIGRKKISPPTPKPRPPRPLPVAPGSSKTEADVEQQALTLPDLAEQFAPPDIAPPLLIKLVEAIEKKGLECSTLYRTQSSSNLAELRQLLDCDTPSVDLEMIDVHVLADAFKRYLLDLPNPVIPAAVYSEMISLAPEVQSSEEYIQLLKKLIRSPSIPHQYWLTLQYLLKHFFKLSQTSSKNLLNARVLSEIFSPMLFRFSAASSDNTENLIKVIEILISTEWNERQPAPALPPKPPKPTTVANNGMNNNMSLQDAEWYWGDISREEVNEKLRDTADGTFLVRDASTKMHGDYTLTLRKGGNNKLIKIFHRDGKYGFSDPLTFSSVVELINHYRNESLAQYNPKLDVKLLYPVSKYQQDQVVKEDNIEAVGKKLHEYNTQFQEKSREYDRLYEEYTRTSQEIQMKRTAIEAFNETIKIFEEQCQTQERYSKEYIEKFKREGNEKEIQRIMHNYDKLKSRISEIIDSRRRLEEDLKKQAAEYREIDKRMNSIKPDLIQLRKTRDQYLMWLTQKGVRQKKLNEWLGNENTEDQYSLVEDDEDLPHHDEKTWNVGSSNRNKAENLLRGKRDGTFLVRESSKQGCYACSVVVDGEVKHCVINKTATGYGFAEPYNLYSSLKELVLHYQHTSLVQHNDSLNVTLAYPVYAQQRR
The experiment in a line: In vitro PI3 kinase enzyme assay (alpha), ATP loss, bioluminescence.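 Note: purified p110α/p85 heterodimer acting on PtdIns(4,5)P2 at room temperature, remaining ATP read by luminescence, inhibition scaled between compound-free wells with and without enzyme.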 The class given is biochemical. The note with it: read-out: PI3Kα ATP loss IC50.

The mark [2] stands for this setting: Homo sapiens, HCT-116, HCT 116 cells.

From patent US7928140B2, “Benzothiazole PI3 kinase modulators for cancer treatment” (Amgen Inc., priority 2007, dated 2011) come the findings set out here.

Where two headings read alike, the source gives them in different places.

T1 sequence (P42338 whole entry): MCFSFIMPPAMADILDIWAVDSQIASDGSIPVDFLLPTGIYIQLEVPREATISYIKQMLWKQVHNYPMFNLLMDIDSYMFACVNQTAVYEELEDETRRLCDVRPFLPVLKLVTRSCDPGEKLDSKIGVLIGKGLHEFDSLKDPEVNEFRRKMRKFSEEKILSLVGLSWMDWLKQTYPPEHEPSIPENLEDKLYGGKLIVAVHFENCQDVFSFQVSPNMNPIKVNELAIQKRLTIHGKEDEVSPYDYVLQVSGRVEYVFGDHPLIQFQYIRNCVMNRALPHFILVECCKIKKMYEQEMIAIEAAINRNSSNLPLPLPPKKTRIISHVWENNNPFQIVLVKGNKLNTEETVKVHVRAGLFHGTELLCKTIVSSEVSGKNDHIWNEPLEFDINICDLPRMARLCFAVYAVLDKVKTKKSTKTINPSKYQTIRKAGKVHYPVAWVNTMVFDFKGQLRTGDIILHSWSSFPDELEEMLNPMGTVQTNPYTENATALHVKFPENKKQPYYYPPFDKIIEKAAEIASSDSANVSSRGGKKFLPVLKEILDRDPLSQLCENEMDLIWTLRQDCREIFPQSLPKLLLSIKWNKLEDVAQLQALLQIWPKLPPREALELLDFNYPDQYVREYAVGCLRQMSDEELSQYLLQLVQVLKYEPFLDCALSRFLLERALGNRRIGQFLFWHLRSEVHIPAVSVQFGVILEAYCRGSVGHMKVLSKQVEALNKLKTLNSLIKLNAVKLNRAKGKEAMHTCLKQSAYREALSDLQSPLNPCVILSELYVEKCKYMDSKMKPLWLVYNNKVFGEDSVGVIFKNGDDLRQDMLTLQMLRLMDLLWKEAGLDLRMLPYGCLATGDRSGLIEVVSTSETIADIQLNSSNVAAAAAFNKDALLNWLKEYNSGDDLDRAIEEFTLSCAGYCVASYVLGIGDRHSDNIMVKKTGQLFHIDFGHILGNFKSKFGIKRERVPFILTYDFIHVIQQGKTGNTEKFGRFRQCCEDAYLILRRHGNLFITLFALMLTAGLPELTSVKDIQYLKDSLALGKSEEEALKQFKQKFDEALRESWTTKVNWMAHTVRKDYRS
T1 sequence (P27986 whole entry partner): as the sequence (P27986 whole entry partner, species assumed) above
Method for PI3K β: Full length p110 subunits of PI3K α, β and δ, N-terminally labeled with polyHis tag, were co-expressed with p85 in baculovirus expression vectors in sf9 insect cells. P110/p85 heterodimers were purified by sequential Ni-NTA, Q-HP, and Superdex-100 chromatography. Purified α, β and δ isozymes were stored at −20° C. in 20 mM Tris, pH 8, 0.2M NaCl, 50% glycerol, 5 mM DTT, 2 mM Na cholate.
PI3K enzyme assays (alpha, beta, delta and gamma) were performed in 25 mL with the above final concentrations of components in white polypropylene plates (Costar catalogue #3355). Phosphatidyl inositol phosphoacceptor, PtdIns(4,5)P2 (eg. P4508) was obtained from Echelon Biosciences. The ATPase activity of the alpha and gamma isozymes was not greatly stimulated by PtdIns(4,5)P2 under these conditions and was therefore omitted from the assay of these isozymes. Test compounds were dissolved in DMSO and diluted with three-fold serial dilutions. The compound in DMSO (1 μL) was added per test well, and the inhibition relative to reactions containing no compound, with and without enzyme was determined. After assay incubation at RT, the reaction was stopped and residual ATP determined by addition of an equal volume of a commercial ATP bioluminescence kit (Perkin Elmer EasyLite) according to the manufacturer's instructions, and detected using an Analyst GT luminometer.

As usually defined, the IC50 is the midpoint of a concentration-inhibition curve. On to `CC(=O)Nc1nc2ccc(-c3ccnc(Sc4c(C)cccc4C)n3)cc2s1` [Example 129, N-(6-(2-((2,6-dimethylphenyl)sulfanyl)-4-pyrimidinyl)-1,3-benzothiazol-2-yl)acetamide], for which the IC50 in test [1] (setting [2]) is 978 nM; on PI3K β it was 477 nM; on PI3K α, 38.3 nM.
Consider `COc1nccc(-c2ccc3nc(NC(C)=O)sc3c2)n1` [Example 51, N-(6-(2-methoxy-4-pyrimidinyl)-1,3-benzothiazol-2-yl)acetamide], for which the IC50 in test [1] (setting [2]) was 952 nM; at PI3K β it was above 40000 nM; on PI3K α, 505 nM.
With `CC(=O)Nc1nc2ccc(-c3cnc(Cl)c(NS(=O)(=O)c4ccc(Cl)cc4)c3)cc2s1` [Example 180, N-(6-(6-chloro-5-(4-chlorophenylsulfonamido)pyridin-3-yl)benzo[d]thiazol-2-yl)acetamide], the IC50 in test [1] (setting [2]) was 12.6 nM; on PI3K β, 8.7 nM.
The matching figures for `Nc1nc2ccc(-c3cnc(Cl)c(NS(=O)(=O)c4ccc(F)cc4)c3)cc2s1` [Example 192, N-(5-(2-aminobenzo[d]thiazol-6-yl)-2-chloropyridin-3-yl)-4-fluorobenzenesulfonamide]: 151 nM and 11.6 nM.
As to `CC(=O)Nc1nc2ccc(-c3ccnc(OCCCc4cccnc4)n3)cc2s1` [Example 1, N-(6-(2-(3-(pyridin-3-yl)propoxy)pyrimidin-4-yl)benzo[d]thiazol-2-yl)acetamide], the IC50 in test [1] (setting [2]) was found to be 1350 nM; on PI3K β it was 3610 nM.
The matching figures for `COc1ccc(S(=O)(=O)Nc2cncc(-c3ccc4nc(NC(C)=O)sc4c3)n2)cc1` [Example 118, N-(6-(6-(((4-methoxyphenyl)sulfonyl)amino)-2-pyrazinyl)-1,3-benzothiazol-2-yl)acetamide]: 147 nM and 17.9 nM.
Regarding `CC(=O)Nc1nc2ccc(-c3ccnc(Sc4cccc(F)c4)n3)cc2s1` [Example 109, N-(6-(2-((3-fluorophenyl)sulfanyl)-4-pyrimidinyl)-1,3-benzothiazol-2-yl)acetamide], the values for the IC50 (in test [1] (setting [2]); at PI3K β) were 1840 nM and 120 nM, respectively.
`COc1ccc(S(=O)(=O)Nc2nccc(-c3ccc4nc(NC(C)=O)sc4c3)n2)cc1` [Example 78, N-(6-(2-(((4-methoxyphenyl)sulfonyl)amino)-4-pyrimidinyl)-1,3-benzothiazol-2-yl)acetamide]: the IC50 in test [1] (setting [2]) turned out to be 428 nM; at PI3K β, 67.2 nM.
The matching figures for `CC(=O)Nc1nc2ccc(-c3ccnc(N(C)S(=O)(=O)c4ccccc4F)n3)cc2s1` [Example 92, N-(6-(2-(2-Fluoro-N-methylphenylsulfonamido)pyrimidin-4-yl)benzo[d]thiazol-2-yl)acetamide]: 888 nM and 310 nM.
Turning to `CC(=O)Nc1nc2ccc(-c3cnc(Cl)c(NS(=O)(=O)c4cccc(F)c4)c3)cc2s1` [Example 183, N-(6-(6-chloro-5-(3-fluorophenylsulfonamido)pyridin-3-yl)benzo[d]thiazol-2-yl)acetamide], the IC50 in test [1] (setting [2]) stood at 16.9 nM; on PI3K β, 10.4 nM.
The matching figures for `CC(=O)Nc1nc2ccc(-c3cccc(N(C)S(=O)(=O)c4ccc(C)cc4)n3)cc2s1` [Example 74, N-(6-(6-(N,4-Dimethylphenylsulfonamido)pyridin-2-yl)benzo[d]thiazol-2-yl)acetamide]: 85.9 nM and 202 nM.
As to `CC(=O)Nc1nc2ccc(-c3ccnc(NS(=O)(=O)c4ccccc4F)n3)cc2s1` [Example 81, N-(6-(2-(((2-fluorophenyl)sulfonyl)amino)-4-pyrimidinyl)-1,3-benzothiazol-2-yl)acetamide], the IC50 in test [1] (setting [2]) came to 4950 nM; on PI3K β, 103 nM.
For `CC(=O)Nc1nc2ccc(-c3cnc(Cl)c(NS(=O)(=O)c4ccccc4)c3)cc2s1` [Example 181, N-(6-(6-chloro-5-(phenylsulfonamido)pyridin-3-yl)benzo[d]thiazol-2-yl)acetamide] the same measures were 10.4 nM and 14.5 nM.
With “N-(6-(2-(3-morpholino)propoxy)-4-pyrimidinyl)-1,3-benzothiazol-2-yl)acetamide [Example 10]”, the IC50 in test [1] (HCT 116 cells) came out at 801 nM; on PI3K β it was 11000 nM.
As to `CC(=O)Nc1nc2ccc(-c3cnc(Cl)c(NS(=O)(=O)c4cccc(C(C)(C)C)c4)c3)cc2s1` [Example 173, N-(6-(5-(3-tert-butylphenylsulfonamido)-6-chloropyridin-3-yl)benzo[d]thiazol-2-yl)acetamide], the values for the IC50 (in test [1] (setting [2]); on PI3K β) were 5.1 nM and 6.9 nM, respectively.
With `COc1cc(-c2ccc3nc(NC(C)=O)sc3c2)cnc1Br` [Example 237, N-(6-(6-bromo-5-methoxypyridin-3-yl)benzo[d]thiazol-2-yl)acetamide], the IC50 is above 5000 nM in test [1] (setting [2]) and 8370 nM at PI3K α.
Regarding `CC(=O)Nc1nc2ccc(-c3ccnc(SCc4ccccc4)n3)cc2s1` [Example 19, N-(6-(2-(benzylsulfanyl)-4-pyrimidinyl)-1,3-benzothiazol-2-yl)acetamide], the IC50 worked out at 670 nM in test [1] (setting [2]) and 184 nM at PI3K β.
As to `CSc1nccc(-c2ccc3nc(NC(C)=O)sc3c2)n1` [Example 50, N-(6-(2-(methylsulfanyl)-4-pyrimidinyl)-1,3-benzothiazol-2-yl)acetamide], the IC50 stood at 1050 nM in test [1] (setting [2]) and 1180 nM at PI3K β.
Turning to `CC(=O)Nc1nc2ccc(-c3ccnc(Sc4ccccc4C)n3)cc2s1` [Example 34, N-(6-(2-((2-methylphenyl)sulfanyl)-4-pyrimidinyl)-1,3-benzothiazol-2-yl)acetamide], the IC50 in test [1] (setting [2]) was 2160 nM; on PI3K β it was 1090 nM.
On to `COc1ccc(S(=O)(=O)Nc2cncc(-c3ccc4nc(NC(C)=O)sc4c3)c2)cc1` [Example 195, N-(6-(5-(4-methoxyphenylsulfonamido)pyridin-3-yl)benzo[d]thiazol-2-yl)acetamide], for which the values for the half-maximal inhibitory concentration (IC50) (in test [1] (setting [2]); on PI3K β) were 32.8 nM and 21.7 nM, respectively.
Take `CC(=O)Nc1nc2ccc(-c3ccnc(N(C)S(=O)(=O)c4ccc(C)cc4)n3)cc2s1` [Example 90, N-(6-(2-(N,4-Dimethylphenylsulfonamido)pyrimidin-4-yl)benzo[d]thiazol-2-yl)acetamide]: the values for the 50% inhibitory concentration (IC50) (in test [1] (setting [2]); at PI3K β) were 51.6 nM and 48.8 nM, respectively.
For `CC(=O)Nc1nc2ccc(-c3cnc(Cl)c(NS(=O)(=O)c4ccc(C(C)(C)C)cc4)c3)cc2s1` [Example 191, N-(6-(5-(4-tert-butylphenylsulfonamido)-6-chloropyridin-3-yl)benzo[d]thiazol-2-yl)acetamide] the same measures were 2.6 nM and 4.2 nM.
As for `CCN(c1nccc(-c2ccc3nc(NC(C)=O)sc3c2)n1)S(=O)(=O)c1ccc(OC)cc1` [Example 89, N-(6-(2-(N-Ethyl-4-methoxyphenylsulfonamido)pyrimidin-4-yl)benzo[d]thiazol-2-yl)acetamide], the results for the IC50 (in test [1] (setting [2]); at PI3K β) were 692 nM and 442 nM, respectively.
As to `CC(=O)Nc1nc2ccc(-c3cnc(Cl)c(NS(=O)(=O)c4ccc(C(F)(F)F)cc4)c3)cc2s1` [Example 190, N-(6-(6-chloro-5-(4-(trifluoromethyl)phenylsulfonamido)pyridin-3-yl)benzo[d]thiazol-2-yl)acetamide], the half-inhibitory concentration (IC50) was found to be 11.5 nM in test [1] (setting [2]) and 7.4 nM at PI3K β.
Regarding `CC(=O)Nc1nc2ccc(-c3ccnc(NS(=O)(=O)c4ccc(F)cc4)n3)cc2s1` [Example 80, N-(6-(2-(((4-fluorophenyl)sulfonyl)amino)-4-pyrimidinyl)-1,3-benzothiazol-2-yl)acetamide], the IC50 in test [1] (setting [2]) amounted to 3220 nM; on PI3K β it was 405 nM.
`CC(=O)Nc1nc2ccc(-c3cnc(Cl)c(F)c3)cc2s1` [Example 238, N-(6-(6-chloro-5-fluoropyridin-3-yl)benzo[d]thiazol-2-yl)acetamide]: the IC50 in test [1] (setting [2]) is 1490 nM; at PI3K α it was 250 nM.
Consider `CC(=O)Nc1nc2ccc(-c3cnc(Cl)c(NS(=O)(=O)c4cccc(C(F)(F)F)c4)c3)cc2s1` [Example 172, N-(6-(6-chloro-5-(3-(trifluoromethyl)phenylsulfonamido)pyridin-3-yl)benzo[d]thiazol-2-yl)acetamide], for which the IC50 in test [1] (setting [2]) was found to be 7 nM; at PI3K β, 6.9 nM.
For `CC(=O)Nc1nc2ccc(-c3ccnc(OCc4ccc(F)cc4)n3)cc2s1` [Example 39, N-(6-(2-((4-fluorobenzyl)oxy)-4-pyrimidinyl)-1,3-benzothiazol-2-yl)acetamide] the same measures were above 40000 nM and 7910 nM.
